“Also recorded” adds a separate entry of the source.
What was measured:
[1] = system: human pancreas adenocarcinoma (PA-TU-8988T) cells; assay: MTT cell viability assay of cancer cells with or without CAP activation, followed by reactive species treatment; assay type: cell-based
[2] = system: human pancreas adenocarcinoma (PA-TU-8988T) cells; assay: as above; assay type: cell-based; conditions: for cell viability: 10 μM H2O2 on CAP-activated cells, 12.5 kHz, 1.53 lpm
Procedure: In this example, human pancreas adenocarcinoma (PA-TU-8988T) cells were used in conjunction with a Dulbecco's modified Eagle's medium (DMEM, 11965-118) from Life Technologies. The DMEM was mixed with 1% (v/v) antibiotic (penicillin and streptomycin) solution (Life Technologies). The media used in the cell culture were composed of DMEM supplemented with 10% (v/v) fetal bovine serum (ThermoFisher Scientific). The cells were cultured in a 96-well plate (61406-081, Corning). 100 μL of the cells-harvesting solution (3×10^4 cells/mL) were seeded in each well. Cancer cells were grown for 1 day under the standard culture condition (a humidified, 37 C, 5% CO2 environment). The media used to culture cells overnight were removed before any experiments were performed.
In the example system 200 in FIG. 2A, basic protocols were provided to determine the activation state of cancer cells. To perform the CAP sensitivity treatment, each well of the well plate 230 was filled with a 50 μL DMEM solution with the growing cells. Each of the cells in the 96-well plate 230 was treated by the CAP jet from the CAP jet device 202 vertically. The gap between the bottom of the 96-well plate 230 and the CAP source is 3 cm in this example. After the CAP treatment, 50 μL of new DMEM was transferred to replace the medium in the wells of the 96-well plate 230 treated by the CAP jet device 202.
As a result, cancer cells in the activation state were obtained when the CAP sensitivity treatment time was longer than 20 seconds. Reactive treatment was applied in the form of new H2O2 − DMEM added to the cells in the well plate 230. To make the new H2O2 − DMEM, 9.8 M H2O2 standard solution (Sigma-Aldrich, 216763) was added to DMEM with a designed concentration. Then, H2O2 − DMEM or NO2 − DMEM was transferred to affect the activated cancer cells in the designed experiments. The cell viability was measured by using MTT assay according to the standard protocols provided by the manufacturer (Sigma-Aldrich, M2128). The 96-well plate 230 was read by an H1 microplate reader manufactured by […] at an absorbance of 570 nm after shaking in the reader for 30 seconds. To perform the data analysis, the measured absorbance at 570 nm was processed to be a relative cell viability by the division of absorbance between the experimental group and the control group.
The CAP treatment and removal of the medium containing reactive species is the basic strategy to obtain the cancer cells in the activated state. Thus, the process for increasing the effectiveness of treating cancer cells with a follow up reactive treatment is as follows. The direct CAP sensitivity treatment (1 min) was first performed on each well of the 96-well plate 230. The cancer cells in the wells were immersed in 50 μL of DMEM. The DMEM was quickly removed (less than a minute) after the CAP sensitivity treatment. Then, the CAP-activated (treated) cancer cells were obtained. The cytotoxicity of H2O2 (10 μM) treatment on the CAP-treated (activated) cancer cells were compared with that on cancer cells without the CAP sensitivity treatment. The H2O2-containing DMEM was made by adding H2O2 standard solution (Sigma-Aldrich, 216763) in DMEM with a designed concentration (10 μM). All cells were cultured for 3 days before the final cell viability assay using a MTT assay (Sigma-Aldrich, M2128). The cell viability assay was performed following the standard protocols provided by the manufacturer. Finally, the absorbance at 570 nm was processed to be a relative cell viability (fold) by the division of absorbance between the experimental group and the control group. In the control group, cancer cells were just cultured in the untreated DMEM.

[3] = cited from earlier work
[4] = low concentration, CAP-activated cancer cells
[5] = low concentration, same cancer cells without activation

OO [H2O2]
killing effect ([1]; 22 μM H2O2, cells activated by CAP (bars 414 and 444)): ~50% | killing effect ([1]; 22 μM H2O2, cells without activation (bars 416 and 446)): about 10% | killing of cancer cells (in words) ([1]; 22 μM H2O2-DMEM, cells activated by CAP treatment): strongly kill | inhibition on the cell viability (in words) ([1]; 22 μM H2O2-DMEM, cells without CAP treatment): very small inhibition | killing effect (in words) ([1]; H2O2 15 μM and 22 μM, CAP-activated cells): strong killing effect | killing effect (in words) ([1]; H2O2-DMEM 15 μM and 22 μM, cells without activation): did not cause strong killing effect | killing effect (in words) ([2]; 10 μM H2O2, CAP-activated cells): significant killing effect | killing effect (in words) ([2]; 10 μM H2O2, cells without CAP treatment (activation)): will not cause a killing effect; also recorded: does not cause a killing effect | cell viability ([2]; discharge voltage 3.15 kV): 0.73 fold | cell viability ([2]; discharge voltage 3.78 kV): 0.38 fold | cell viability ([2]; discharge voltage 4.67 kV): 0.71 fold | effect on cell viability (in words) ([2]; H2O2 DMEM applied two hours after CAP treatment): does not have any effect on cell viability | killing effect (in words) [2, 4]: noticeable killing effect | killing effect (in words) [2, 5]: will not cause significant killing effect

O=NO [NO2 −]
killing effect (in words) [2, 4]: noticeable killing effect | killing effect (in words) [2, 5]: will not cause significant killing effect

Cn1nnc2c(C(N)=O)ncn2c1=O [TMZ, Temozolomide]
concentration range found in CSF [3]: 10 to 25 µM
